# What was measured:
# [1] = In vivo toxicity in healthy C57 mice
# Description: The 30 normal C57 mice (20–25 g) were randomly divided into a normal saline group, TP (0.4 mg/kg) group and TP-CSO group (equivalent TP of 0.2, 0.4 and 0.6 mg/kg), respectively. The drugs were administered by a gavage once every two days for seven times. The body weight and fatality rate were recorded daily. On the 14th day, blood was collected from the eyes, and the organs were harvested after the mice were euthanized. A Beckman CX5 automated analyzer detected renal function indexes, liver function indexes (serum alanine aminotransferase (ALT), aspartic aminotransferase (AST)), and (blood urea nitrogen (BUN) creatinine (CRE)).
# [2] = Pharmacokinetics after gavage administration to rats (plasma level of free TP by LC-MS); parameters: species or system SD rats; conditions: Sprague-Dawley, rat, in vivo, po, 0.4 mg/kg
# Description: To evaluate the in vivo pharmacokinetics of TP-CSO conjugate, the SD rats (250–300 g, Sprague-Dawley rat) fasted 12 h in advance and were randomized into two groups (n = 5) and respectively treated with TP (0.4 mg/kg) and TP-CSO (0.4 mg/kg, TP equivalent). The blood samples (500 µL) were collected through the ocular chorionic vein at 5, 15, 30, 60, 120, 180, 240, 360, 480 and 720 min after intragastric administration. Subsequently, the samples were immediately centrifuged at 3500 rpm for 15 min. An upper plasma sample was collected and kept at −80 °C.
# Sample processing: to the plasma sample,10 µL of ferulic acid (2.5 ng/mL) was added as internal standard. The sample (100 µL) was placed in a 1.5 mL Eppendorf tube, to which 800 µL of ethyl acetate was added and vortexed for 3 min, and this was centrifuged at 12,000 rpm for 15 min. The upper solution was taken and blow dried with nitrogen at room temperature. The dried residue was dissolved in 100 µL of methanol-water (60:40, v/v) solution, vortexed for 3 min, subsequently centrifuged at 12,000 rpm for 15 min at 4 °C and the upper solution was collected into a 2 mL vial.
# 10 μL of sample was injected into a Watets C-18 column (2.1 mm × 50 mm, 1.8 µm) on a Sciex X500R QTOF Mass Spectrometer (UPLC-MS; Framingham, MA, USA). The column was eluted with methanol (A)/water (B) solution at a flow rate of 0.3 mL/min and a column temperature of 35 °C (0–6 min, A: 40%–90%; 6–8.1 min, A: 90%; 8.1–10 min, A: 40%). The operating conditions of UPLC-MS are as follows: electrospray ionization source (ESI), negative ionization mode; Ion spray voltage (ISV), 3500 V; Drying temperature, 325 °C; Flow rate of desolvent gas, 8.0 L/min; Atomization temperature, 350 °C. The pyrolysis energy and impact energy of TP were 120 V and 10 V, respectively, and those of ferulic acid were 90 V and 10 V, respectively. A multiple reaction monitoring mode (MRM) was used to monitor the transformation of TP from m/z [M-H] 359.1→241.1 and ferulic acid m/z [M-H] 193.1→134.1 to productions.
# Panco2 tumor = assay: In vivo antitumor study in Panco2 tumor-bearing mice
# Description: The antitumor activity of the TP-CSO conjugate was evaluated on Panco2 tumor-bearing mice. First, C57 mice (20–25 g) were implanted subcutaneously with 2 × 10^6 Panco2 cells. When the tumor grew up to about 100 mm^3, the mice were orally administrated with 0.4 mg/kg TP and TP-CSO (0.2, 0.4 and 0.6 mg TP equivalent/kg) once every two days, respectively. The body weight and fatality rate were recorded. Mice in control groups were orally administrated with saline solution. The tumor volume was measured with calipers and calculated by the (1/2) (a × b²) formula (a is long diameter, b is short diameter). After 14 days of intragastric administration, the mice were sacrificed, and livers, kidney, and tumors were harvested.
# [3] = healthy C57 mice, day 14, 0.4 mg/kg TP equivalent (medium dose)
compound,measurement,setting,value
"CC(C)[C@]12O[C@H]1[C@@H]1O[C@]13[C@]1(O[C@H]1C[C@H]1C4=C(CC[C@@]13C)C(=O)OC4)[C@@H]2O [TP, Triptolide]",BUN and CRE levels,[1]; [3],significantly lower than in the control group
same,serum ALT and AST levels,[1]; [3],obviously higher than those in other groups
same,body weight vs control group,"[1]; healthy C57 mice, gavage once every two days x7, 0.4 mg/kg TP equivalent (medium dose)",obvious body weight loss but without lethality
same,minimum dose causing the death of mice,"[1]; mice, preliminary experiments",about 0.6 mg/kg
same,AUC(0-inf),[2],0.061 ng·h/mL
same,Cmax,[2],0.021 ng/mL
same,Tmax,[2],15 min
same,half-life,[2],42.6 min
same,tumor-inhibition rate (TIR),"Panco2 tumor; Panco2-bearing mice, oral once every two days, end of study, 0.4 mg TP equivalent/kg (medium dose)",43.39%
same,body weight vs control group,"Panco2 tumor; mouse, in vivo, po, 0.4 mg/kg",obvious decrease in body weight
